From ChEMBL document CHEMBL1201862, “PubChem BioAssay data set” (2004)
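Five concentrations, 48 hours, 96-well plates. The concentration for 50% growth inhibition is given as GI50.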 Active and inactive are the calls of the source. Rule as the data show it: active = GI50 up to about 1.1 µM and inactive = higher.

What was measured:
Experiment in all cases: growth of human tumour cells (NCI), 48 h
786-0 = system: 786-0
A498 = system: A498
A549 = system: A549
ACHN = system: ACHN
BT-549 = system: BT-549
CAKI-1 = system: CAKI-1
CCRF-CEM = system: CCRF-CEM
COLO 205 = system: COLO 205
DU-145 = system: DU-145
EKVX = system: EKVX
HCC 2998 = system: HCC 2998
HCT-116 = system: HCT-116
HCT-15 = system: HCT-15
HL-60 = system: HL-60
HOP-62 = system: HOP-62
HOP-92 = system: HOP-92
HT-29 = system: HT-29
Hs-578T = system: Hs-578T
IGROV-1 = system: IGROV-1
K562 = system: K562
KM12 = system: KM12
LOX IMVI = system: LOX IMVI
M14 = system: M14
MCF7 = system: MCF7
MDA-MB-231 = system: MDA-MB-231
MDA-MB-435 = system: MDA-MB-435
MOLT-4 = system: MOLT-4
Malme-3M = system: Malme-3M
NCI-H226 = system: NCI-H226
NCI-H23 = system: NCI-H23
NCI-H460 = system: NCI-H460
NCI-H522 = system: NCI-H522
NCI/ADR-RES = system: NCI/ADR-RES
OVCAR-3 = system: OVCAR-3
OVCAR-4 = system: OVCAR-4
OVCAR-5 = system: OVCAR-5
OVCAR-8 = system: OVCAR-8
PC-3 = system: PC-3
RPMI-8226 = system: RPMI-8226
RXF 393 = system: RXF 393
SF-268 = system: SF-268
SF-295 = system: SF-295
SF-539 = system: SF-539
SK-MEL-28 = system: SK-MEL-28
SK-MEL-2 = system: SK-MEL-2
SK-MEL-5 = system: SK-MEL-5
SK-OV-3 = system: SK-OV-3
SN12C = system: SN12C
SNB-19 = system: SNB-19
SNB-75 = system: SNB-75
SR = system: SR
SW-620 = system: SW-620
T47D = system: T47D
TK-10 = system: TK-10
U-251 = system: U-251
UACC-257 = system: UACC-257
UACC-62 = system: UACC-62
UO-31 = system: UO-31

## COc1cccc2c1C(=O)c1c(O)c3c(c(O)c1C2=O)C[C@@](O)(/C(C)=N/NC(=O)c1ccc(Cl)c(Cl)c1)C[C@@H]3OC1CC(N)C(O)C(C)O1 (stereo partly specified)
786-0
  GI50: 0.191 µM (active)
A498
  GI50: 1.22 µM (inactive)
A549
  GI50: 0.186 µM (active)
ACHN
  GI50: 0.0364 µM (active)
BT-549
  GI50: 0.505 µM (active)
CAKI-1
  GI50: 0.0646 µM (active)
CCRF-CEM
  GI50: 0.0299 µM (active)
COLO 205
  GI50: 0.176 µM (active)
DU-145
  GI50: 0.251 µM (active)
EKVX
  GI50: 0.904 µM (active)
HCC 2998
  GI50: 0.146 µM (active)
HCT-116
  GI50: 0.0391 µM (active)
HCT-15
  GI50: 0.219 µM
HL-60
  GI50: 0.0348 µM (active)
HOP-62
  GI50: 0.147 µM (active)
HOP-92
  GI50: 0.424 µM (active)
HT-29
  GI50: 0.071 µM (active)
Hs-578T
  GI50: 0.528 µM (active)
IGROV-1
  GI50: 0.462 µM (active)
K562
  GI50: 0.197 µM (active)
KM12
  GI50: 0.205 µM (active)
LOX IMVI
  GI50: 0.0249 µM (active)
M14
  GI50: 0.148 µM (active)
MCF7
  GI50: 0.0693 µM (active)
MDA-MB-231
  GI50: 0.711 µM (active)
MDA-MB-435
  GI50: 0.27 µM (active)
MOLT-4
  GI50: < 0.01 µM (active)
Malme-3M
  GI50: 0.0237 µM (active)
NCI-H226
  GI50: 0.092 µM (active)
NCI-H23
  GI50: 0.0592 µM (active)
NCI-H460
  GI50: 0.067 µM (active)
NCI-H522
  GI50: 0.223 µM (active)
NCI/ADR-RES
  GI50: 0.532 µM (active)
OVCAR-3
  GI50: 0.226 µM (active)
OVCAR-4
  GI50: 0.0668 µM (active)
OVCAR-5
  GI50: 0.374 µM (active)
OVCAR-8
  GI50: 0.292 µM (active)
PC-3
  GI50: 0.411 µM (active)
RPMI-8226
  GI50: 0.0269 µM (active)
RXF 393
  GI50: 1.15 µM (inactive)
SF-268
  GI50: 0.296 µM (active)
SF-295
  GI50: 0.078 µM (active)
SF-539
  GI50: 0.183 µM (active)
SK-MEL-28
  GI50: 0.0676 µM (active)
SK-MEL-2
  GI50: 0.718 µM (active)
SK-MEL-5
  GI50: 0.116 µM (active)
SK-OV-3
  GI50: 0.44 µM (active)
SN12C
  GI50: 0.101 µM (active)
SNB-19
  GI50: 0.0792 µM (active)
SNB-75
  GI50: 0.0448 µM (active)
SR
  GI50: < 0.01 µM (active)
SW-620
  GI50: 0.0923 µM (active)
T47D
  GI50: 0.372 µM (active)
TK-10
  GI50: 0.225 µM (active)
U-251
  GI50: 0.0589 µM (active)
UACC-257
  GI50: 0.188 µM (active)
UACC-62
  GI50: 0.11 µM (active)
UO-31
  GI50: 1.08 µM (active)

## CC1=NN(c2nc(N)nc(COCc3nc(N)nc(N4N=C(C)CC4(C)C)n3)n2)C(C)(C)C1
786-0
  GI50: > 100 µM (inactive)
A498
  GI50: > 100 µM (inactive)
A549
  GI50: > 100 µM (inactive)
ACHN
  GI50: > 100 µM (inactive)
BT-549
  GI50: > 100 µM (inactive)
CAKI-1
  GI50: > 100 µM (inactive)
CCRF-CEM
  GI50: > 100 µM (inactive)
COLO 205
  GI50: > 100 µM (inactive)
DU-145
  GI50: > 100 µM (inactive)
EKVX
  GI50: > 100 µM (inactive)
HCC 2998
  GI50: > 100 µM (inactive)
HCT-116
  GI50: > 100 µM (inactive)
HCT-15
  GI50: > 100 µM
HL-60
  GI50: > 100 µM (inactive)
HOP-62
  GI50: > 100 µM (inactive)
HOP-92
  GI50: > 100 µM (inactive)
HT-29
  GI50: > 100 µM (inactive)
Hs-578T
  GI50: > 100 µM (inactive)
IGROV-1
  GI50: > 100 µM (inactive)
K562
  GI50: > 100 µM (inactive)
KM12
  GI50: > 100 µM (inactive)
LOX IMVI
  GI50: > 100 µM (inactive)
M14
  GI50: > 100 µM (inactive)
MCF7
  GI50: > 100 µM (inactive)
MDA-MB-231
  GI50: > 100 µM (inactive)
MDA-MB-435
  GI50: > 100 µM (inactive)
MOLT-4
  GI50: > 100 µM (inactive)
NCI-H226
  GI50: > 100 µM (inactive)
NCI-H23
  GI50: > 100 µM (inactive)
NCI-H460
  GI50: > 100 µM (inactive)
NCI-H522
  GI50: > 100 µM (inactive)
NCI/ADR-RES
  GI50: > 100 µM (inactive)
OVCAR-3
  GI50: > 100 µM (inactive)
OVCAR-4
  GI50: > 100 µM (inactive)
OVCAR-5
  GI50: > 100 µM (inactive)
OVCAR-8
  GI50: > 100 µM (inactive)
PC-3
  GI50: > 100 µM (inactive)
RPMI-8226
  GI50: > 100 µM (inactive)
RXF 393
  GI50: > 100 µM (inactive)
SF-268
  GI50: > 100 µM (inactive)
SF-295
  GI50: > 100 µM (inactive)
SF-539
  GI50: > 100 µM (inactive)
SK-MEL-28
  GI50: > 100 µM (inactive)
SK-MEL-2
  GI50: > 100 µM (inactive)
SK-MEL-5
  GI50: > 100 µM (inactive)
SK-OV-3
  GI50: > 100 µM (inactive)
SN12C
  GI50: > 100 µM (inactive)
SNB-19
  GI50: > 100 µM (inactive)
SNB-75
  GI50: > 100 µM (inactive)
SR
  GI50: > 100 µM (inactive)
SW-620
  GI50: > 100 µM (inactive)
T47D
  GI50: > 100 µM (inactive)
TK-10
  GI50: > 100 µM (inactive)
U-251
  GI50: > 100 µM (inactive)
UACC-257
  GI50: > 100 µM (inactive)
UACC-62
  GI50: > 100 µM (inactive)
UO-31
  GI50: > 100 µM (inactive)

## Nc1nc(NCC2(CO)CC2)cc(=O)[nH]1
786-0
  GI50: > 100 µM (inactive)
A498
  GI50: > 100 µM (inactive)
A549
  GI50: > 100 µM (inactive)
ACHN
  GI50: > 100 µM (inactive)
BT-549
  GI50: > 100 µM (inactive)
CAKI-1
  GI50: > 100 µM (inactive)
CCRF-CEM
  GI50: > 100 µM (inactive)
COLO 205
  GI50: > 100 µM (inactive)
DU-145
  GI50: > 100 µM (inactive)
EKVX
  GI50: > 100 µM (inactive)
HCC 2998
  GI50: > 100 µM (inactive)
HCT-116
  GI50: > 100 µM (inactive)
HCT-15
  GI50: > 100 µM
HL-60
  GI50: > 100 µM (inactive)
HOP-62
  GI50: > 100 µM (inactive)
HOP-92
  GI50: > 100 µM (inactive)
HT-29
  GI50: > 100 µM (inactive)
Hs-578T
  GI50: > 100 µM (inactive)
IGROV-1
  GI50: > 100 µM (inactive)
K562
  GI50: > 100 µM (inactive)
KM12
  GI50: > 100 µM (inactive)
LOX IMVI
  GI50: > 100 µM (inactive)
M14
  GI50: > 100 µM (inactive)
MCF7
  GI50: > 100 µM (inactive)
MDA-MB-231
  GI50: > 100 µM (inactive)
MDA-MB-435
  GI50: > 100 µM (inactive)
MOLT-4
  GI50: > 100 µM (inactive)
Malme-3M
  GI50: > 100 µM (inactive)
NCI-H226
  GI50: > 100 µM (inactive)
NCI-H23
  GI50: > 100 µM (inactive)
NCI-H460
  GI50: > 100 µM (inactive)
NCI-H522
  GI50: > 100 µM (inactive)
NCI/ADR-RES
  GI50: > 100 µM (inactive)
OVCAR-3
  GI50: > 100 µM (inactive)
OVCAR-4
  GI50: > 100 µM (inactive)
OVCAR-5
  GI50: > 100 µM (inactive)
OVCAR-8
  GI50: > 100 µM (inactive)
PC-3
  GI50: > 100 µM (inactive)
RPMI-8226
  GI50: > 100 µM (inactive)
RXF 393
  GI50: > 100 µM (inactive)
SF-268
  GI50: > 100 µM (inactive)
SF-295
  GI50: > 100 µM (inactive)
SK-MEL-28
  GI50: > 100 µM (inactive)
SK-MEL-2
  GI50: > 100 µM (inactive)
SK-MEL-5
  GI50: > 100 µM (inactive)
SK-OV-3
  GI50: > 100 µM (inactive)
SN12C
  GI50: > 100 µM (inactive)
SNB-19
  GI50: > 100 µM (inactive)
SNB-75
  GI50: > 100 µM (inactive)
SR
  GI50: > 100 µM (inactive)
SW-620
  GI50: > 100 µM (inactive)
T47D
  GI50: > 100 µM (inactive)
U-251
  GI50: > 100 µM (inactive)
UACC-257
  GI50: > 100 µM (inactive)
UACC-62
  GI50: > 100 µM (inactive)
UO-31
  GI50: > 100 µM (inactive)
